ChEMBL document CHEMBL6153074, “Discovery of novel dual tubulin and MMPs inhibitors for the treatment of lung cancer and overcoming drug resistance” (Eur J Med Chem, 2025)
Calls of active or inactive are those of the source. No cut-off for these calls is given here.

Tests used:
[1] = Antiproliferative activity against human MCF-10A cells by CCK8 assay; type: toxicity, cell-based
[2] = Stability of compound assessed as carboxylesterase (unknown origin)-mediated drug hydrolysis incubated for 4 hrs by RP-HPLC analysis; type: ADME; details: human
A549 [3] = assay: Downregulation of IKK-beta phosphorylation in TNF-alpha-treated human A549 cells by Western blot analysis; type: functional, cell-based
A549 [4] = assay: Induction of apoptosis in human A549 cells assessed as viable cells at 0.5 uM incubated for 24 hrs by Annexin V-FITC/PI staining based flow cytometry (reference value: 95.82 %); type: functional; details: read-out: Activity
A549 [5] = assay: Induction of apoptosis in human A549 cells assessed as viable cells at 0.25 uM incubated for 24 hrs by Annexin V-FITC/PI staining based flow cytometry (reference value: 95.82 %); type: functional; details: read-out: Activity
A549 [6] = assay: Induction of apoptosis in human A549 cells assessed as early apoptotic cells at 0.25 uM incubated for 24 hrs by Annexin V-FITC/PI staining based flow cytometry (reference value: 3.04 %); type: functional
A549 [7] = assay: Induction of intracellular ROS accumulation in human A549 cells assessed as increase in green fluorescence incubated for 24 hrs by DCFH-DA dye based confocal microscopy; type: functional, cell-based
A549 [8] = assay: Induction of intracellular ROS accumulation in human A549 cells at 0.5 uM incubated for 24 hrs by DCFH-DA dye based flow cytometry (reference value: 4.96 %); type: functional
A549 [9] = assay: Induction of intracellular ROS accumulation in human A549 cells at 0.25 uM incubated for 24 hrs by DCFH-DA dye based flow cytometry (reference value: 4.96 %); type: functional
A549 [10] = assay: Induction of apoptosis in human A549 cells assessed as increase in Bax level at 0.5 uM incubated for 24 hrs by Western blot analysis; type: functional, cell-based
A549 [11] = assay: Induction of apoptosis in human A549 cells assessed as decrease in Bcl-2 level at 0.5 uM incubated for 24 hrs by Western blot analysis; type: functional, cell-based
A549 [12] = assay: Antitumor activity against human A549 cells xenografted in BALB/c mouse at 20 mg/kg, ip for 3 weeks administered on every 2 days relative to control; type: functional; details: A549, 504 h, read-out: TGI
[13] = Toxicity in BALB/c mouse xenografted with human A549 cells assessed as body weight loss at 10 to 20 mg/kg, ip for 3 weeks administered on every 2 days; type: organism-based; details: in vivo, 504 h, dose 10-20 mg/kg
[14] = Toxicity in BALB/c mouse xenografted with human A549 cells assessed as effect on liver at 10 to 20 mg/kg, ip for 3 weeks administered on every 2 days by H and E staining based analysis; type: organism-based; details: in vivo, 504 h, dose 10-20 mg/kg
[15] = Toxicity in BALB/c mouse xenografted with human A549 cells assessed as effect on spleen at 10 to 20 mg/kg, ip for 3 weeks administered on every 2 days by H and E staining based analysis; type: organism-based; details: in vivo, 504 h, dose 10-20 mg/kg
[16] = Toxicity in BALB/c mouse xenografted with human A549 cells assessed as effect on lung at 10 to 20 mg/kg, ip for 3 weeks administered on every 2 days by H and E staining based analysis; type: organism-based; details: in vivo, 504 h, dose 10-20 mg/kg

Stability [2]: Unstable
SMILES: CCOP(=O)(OCC)C(Nc1ccc(CC(=O)Oc2cc(/C=C/C(=O)c3cc(OC)c(OC)c(OC)c3)ccc2OC)cc1)c1cccc([N+](=O)[O-])c1 (stereo unspecified)
IC50 [1]: 2710 nM | Activity (A549 [3]): Active | viability at 0.5 µM (A549 [4]): 57.9% | viability at 0.25 µM (A549 [5]): 79.9% | Activity (A549 [6]): 16.18% | Activity (A549 [7]): Active | Activity (A549 [8]): 70.79% | Activity (A549 [9]): 36.07% | Activity (A549 [10]): Active | Activity (A549 [11]): Active | inhibition in vivo at 20 mg/kg (A549 [12]): 74.7% | Activity [13]: Non-toxic | Activity [14]: Non-toxic | Activity [15]: Non-toxic | Activity [16]: Non-toxic
